Source: US8742117B2, “Oxime derivatives” (Cadila Healthcare Limited, priority 2008, dated 2014)

Assays:
human GPR 119 receptor = target: T1, human GPR 119 receptor (Homo sapiens, UniProt Q8TDV5); test: cAMP assay in stable cell line expressing recombinant human GPR 119 receptor; format: cell-based; conditions: 1 μM; intracellular cAMP, recombinant human GPR 119 cell line
T1 construct: expressed in transfected cells
T1 sequence (Q8TDV5 1-335): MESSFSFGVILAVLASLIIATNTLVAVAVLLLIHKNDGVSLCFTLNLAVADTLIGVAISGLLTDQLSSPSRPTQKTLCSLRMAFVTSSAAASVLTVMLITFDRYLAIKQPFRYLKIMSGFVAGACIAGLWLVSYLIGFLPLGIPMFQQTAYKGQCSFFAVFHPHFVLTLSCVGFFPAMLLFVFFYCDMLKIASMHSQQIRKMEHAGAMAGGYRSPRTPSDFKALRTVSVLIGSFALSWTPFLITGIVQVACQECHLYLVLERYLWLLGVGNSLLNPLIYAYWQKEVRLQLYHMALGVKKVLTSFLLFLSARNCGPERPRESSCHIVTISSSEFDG
Text: A stable cell line expressing recombinant human GPR 119 receptor was established and used to investigate the efficacy of the compounds of the invention based on the intracellular levels of cyclic AMP (cAMP) using commercially available cAMP kits. Compounds of the invention produced a concentration dependent increase in cAMP level and EC50 values of representative compounds were provided in table 1 and table 2 respectively.

Sprague Dawley rats = test: Feed intake in Sprague Dawley rats; format: in vivo, rat; conditions: 25 mg/kg i.p., cumulative feed intake vs vehicle control
Text: In Vivo Efficacy Studies: Feed Intake in Sprague Dawley Rats:
Sprague Dawley rats of 6-8 week age were be used for this experiment they were be kept for acclimatization in reversed light/dark cycle for 15 days. Animals will have free access to a standard chow diet and water during acclimatization period. After 15 days reversed light/dark cycle acclimatization animals were trained for fasting induced feed intake for 5 days till they show consistent feed intake. Grouping was done based on the monitored feed intake the training days. On treatment day each group of animals were dosed with test compound or vehicle by appropriate routes of administration (orally or intraperitoneally). Exactly 30 min. after treatment, measured amount of standard chow diet was provided and recorded as 0-min feed offered. Then subsequently 2, 4, 6 and 24 hour after 0-min, feed intake was measured and the cumulative feed intakes were calculated. The change in cumulative feed intake as compare to vehicle treated control at each time point was calculated for test compound and results were provided in table 2

C57/BL6 mice = test: Oral glucose tolerance test (OGTT) in C57/BL6 mice; format: in vivo, mouse; conditions: 30 mg/kg oral single dose; glucose load 3 gm/kg; serum glucose AUC
Experimental: Oral Glucose Tolerance Tests (OGTT) in C57/BL6 Mice:
C57/BL6 mice of 6-8 week age were used for this experiment. Animals were grouped based on non-fasting serum glucose levels and kept on fasting for overnight (day before OGTT). On the experiment day, each animal received a single dose of vehicle/test compounds (30 mg/kg) were administered orally, 30 min post dosing animals were bled for basal glucose level estimation and at same time glucose load (3 gm/kg) will be administered per orally. Blood was collected at time points corresponding to 20, 40, 60 and 120 min after glucose load administration. Serum was separated for determination of glucose levels and change in area under curve for glucose was calculated and provided in table 3 as % reduction in AUC.

SMILES | % activity at 1 μM (human GPR 119 receptor) [%] | % reduction in food in take 2 hour (Sprague Dawley rats) [%] | % reduction in food in take 4 hour (Sprague Dawley rats) [%] | % reduction in food in take 6 hour (Sprague Dawley rats) [%] | % reduction in food in take 24 hour (Sprague Dawley rats) [%] | % reduction in AUC at 30 mg/kg (C57/BL6 mice) [%]
CC(=NOc1ncnc(N2CCC(c3nc(C(C)C)no3)CC2)c1C)c1ccc(S(C)(=O)=O)cc1F [Example 6, 1-(2-fluoro-4-(methylsulfonyl)phenyl)ethanone O-6-(4-(3-isopropyl-1,2,4-oxadiazol-5-yl)piperidin-1-yl)-5-methylpyrimidin-4-yl oxime] | 49.55 | 57 | 52 | 33.3 | 15.1 | 20
CC(=NOc1ncnc(N2CCC(c3nc(C(C)C)no3)CC2)c1[N+](=O)[O-])c1ccc(S(C)(=O)=O)cc1F [Example 14, 1-(2-fluoro-4-(methylsulfonyl)phenyl)ethanone O-6-(4-(3-isopropyl-1,2,4-oxadiazol-5-yl)piperidin-1-yl)-5-nitropyrimidin-4-yl oxime] | 89.97 | 53 | 48 | 37 | 16 | 20
CC(=NOc1ncnc(N2CCC(c3nc(C(C)C)no3)CC2)c1C)c1ccc(C(F)(F)F)cc1 [Example 15, 1-(4-(trifluoromethyl)phenyl)ethanone O-6-(4-(3-isopropyl-1,2,4-oxadiazol-5-yl)piperidin-1-yl)-5-methylpyrimidin-4-yl oxime] | 79.21 | 41 | 27 | 24 | 11 | 23.4
